{
  "source": "paper PMC8170916",
  "about": "“Sublingual AKBA Exerts Antidepressant Effects in the Aβ-Treated Mouse Model” (Biomolecules, 2021)",
  "key": {"[1]": {"tested_on": "depressive-like behavior induced by Aβ", "settings": "through the increased levels of NA; no reference given; cited from earlier work"}, "Aβ-treated rats": {"tested_on": "Aβ-treated rats", "design": "method as in PMID 28499898", "settings": "acute treatment; cited from earlier work"}, "Aβ-treated mice [2]": {"tested_on": "Aβ-treated mice", "experiment": "Splash test in Aβ-treated mice", "type": "in vivo", "settings": "mice 7 days after icv Aβ 4 µM; sublingual AKBA 5 mg/kg 30 min before testing; Aβ vs SHAM, Aβ+AKBA vs Aβ"}, "Aβ-treated mice [3]": {"tested_on": "Aβ-treated mice", "experiment": "Tail suspension test in Aβ-treated mice", "type": "in vivo", "settings": "mice 7 days after icv Aβ 4 µM, sublingual AKBA 5 mg/kg 30 min before, Aβ vs SHAM"}, "noradrenaline (NA)": {"tested_on": "noradrenaline (NA)", "experiment": "Noradrenaline quantification in PFC and HIPP by HPLC with electrochemical detection", "type": "in vivo", "settings": "HIPP, mice 7 days after icv Aβ 4 µM; sublingual AKBA 5 mg/kg 30 min earlier", "method": "(§1) All behavioral experiments were conducted at 5 or 30 min after sublingual administrations of AKBA or vehicle in either SHAM or Aβ-treated mice. Based upon behavioral outcomes observed, neurochemical and biochemical quantifications were performed 30 min after AKBA or vehicle administration in either SHAM or Aβ-treated mice.\n(§2) Anesthetized animals were sacrificed by cervical dislocation. Brains were immediately removed and kept on ice for dissection of PFC and HIPP, according to the atlas of Paxinos and Franklin. Tissues were frozen and stored at −80 °C until analyses were carried out. Samples (PFC and HIPP) were homogenized (1:10 w/v) at 4 °C using a PBS buffer containing a 1:100 protease and phosphatase inhibitor cocktail (HALT inhibitors, Thermo Fisher Scientific, Cleveland, OH, USA) for biochemical analyses or perchloric acid 0.1 M for neurochemical analyses. Homogenates were centrifuged at 13,000× g at 4 °C for 20 min, and supernatants were used for further determinations.\n(§3) 5-HT, noradrenaline (NA), and KYN levels were measured in the PFC and HIPP of mice by HPLC coupled with an electrochemical detector (Ultimate ECD, Thermo Scientific Dionex, Milan, Italy) as already reported. Separation was performed by a LC18 reverse phase column (Kinetex, 150 mm × 3.0 mm, ODS 5 μm; Phenomenex, Castel Maggiore-Bologna, Italy). The detection was accomplished by a thin layer amperometric cell (Thermo Scientific Dionex, Milan, Italy) with a 5 mm diameter glassy carbon electrode at a working potential of 400 mV (5-HT and NA) or 0.750 mV (KYN) vs. Pd. The mobile phase consisted of an aqueous buffer containing 75 mM NaH2PO4, 1.7 mM octane sulfonic acid, 0.3 mM EDTA, and acetonitrile 10%, buffered at pH 3.0. […] GLU concentrations were determined by HPLC coupled with fluorescence detection (emission length 460 nm; excitation length 340 nm), as previously published. […] Results were analyzed by Borwin software (version 1.50; Jasco, Cremella, Italy) and the amino acid concentration was expressed as µM. All data were normalized for total area weight and were expressed as concentration/mg of tissue."}, "glutamate (GLU)": {"tested_on": "glutamate (GLU)", "experiment": "Glutamate quantification in PFC and HIPP by HPLC with fluorescence detection", "type": "in vivo", "settings": "mice 7 days after icv Aβ 4 µM, sublingual AKBA 5 mg/kg 30 min earlier", "method": "as §1, §2, §3"}, "kynurenine (KYN)": {"tested_on": "kynurenine (KYN)", "experiment": "Kynurenine quantification in PFC and HIPP by HPLC with electrochemical detection", "type": "in vivo", "settings": "mice 7 days after icv Aβ 4 µM, sublingual AKBA 5 mg/kg 30 min earlier", "method": "as §1, §2\n(§4) 5-HT, noradrenaline (NA), and KYN levels were measured in the PFC and HIPP of mice by HPLC coupled with an electrochemical detector (Ultimate ECD, Thermo Scientific Dionex, Milan, Italy) as already reported. Separation was performed by a LC18 reverse phase column (Kinetex, 150 mm × 3.0 mm, ODS 5 μm; Phenomenex, Castel Maggiore-Bologna, Italy). The detection was accomplished by a thin layer amperometric cell (Thermo Scientific Dionex, Milan, Italy) with a 5 mm diameter glassy carbon electrode at a working potential of 400 mV (5-HT and NA) or 0.750 mV (KYN) vs. Pd. The mobile phase consisted of an aqueous buffer containing 75 mM NaH2PO4, 1.7 mM octane sulfonic acid, 0.3 mM EDTA, and acetonitrile 10%, buffered at pH 3.0. The flow rate was kept at 0.7 mL·min-1 by an isocratic pump (Shimadzu LC-10 AD, Kyoto, Japan). Data acquisition and integration were performed by using Chromeleon software (version 6.80, Thermo Scientific Dionex, Milan, Italy). GLU concentrations were determined by HPLC coupled with fluorescence detection (emission length 460 nm; excitation length 340 nm), as previously published. Analyses were carried out using an LC18 reverse phase column (Kinetex, 150 mm × 3.0 mm, ODS 5 μm; Phenomenex, Castel Maggiore, Bologna, Italy) and detection was accomplished by pre-column derivatization with ophthalaldehyde/mercaptopropionic acid. The mobile phase consisted of a 50 mM sodium acetate buffer, at pH 6.95, with gradient methanol increasing linearly from 2 to 30% (v/v) over a 40 min run. […] Results were analyzed by Borwin software (version 1.50; Jasco, Cremella, Italy) and the amino acid concentration was expressed as µM. All data were normalized for total area weight and were expressed as concentration/mg of tissue."}, "5-HT": {"tested_on": "5-HT", "experiment": "5-HT quantification in PFC and HIPP by HPLC with electrochemical detection", "type": "in vivo", "settings": "mice 7 days after icv Aβ 4 µM, sublingual AKBA 5 mg/kg 30 min earlier", "method": "as §1, §2, §4"}, "GFAP": {"tested_on": "GFAP", "experiment": "Western blotting quantification of GFAP in PFC and HIPP", "type": "in vivo", "settings": "mice 7 days after icv Aβ 4 µM, sublingual AKBA 5 mg/kg 30 min earlier", "method": "as §1, §2\n(§5) The total amount of proteins was measured in homogenates by using Pierce BCA Assay (Thermo Fisher Scientific, Cleveland, OH, USA). Forty µg of the total lysate protein were separated by SDS-PAGE precast gels (Bio-Rad Laboratories Inc., Segrate (MI), Italy), transferred onto nitrocellulose membranes (Bio-Rad Laboratories Inc, Segrate (MI), Italy) and then blocked for 1 h in blocking buffer (SigmaAldrich, Milan, Italy). Rabbit polyclonal antibody against GFAP (Dako Products, USA; 1:2000), rabbit monoclonal antibody against CD11b (Abcam, Cambridge, MA, USA; ab133357, 1:1000) and mouse monoclonal antibody against NF-kB p65 (Santa Cruz Biotechnology, Dallas, Texas, USA; 1:2000) were used to incubate the membranes overnight at 4 °C. After HRP-conjugated specific antibody incubation, ECL reagent (Bio-Rad Laboratories Inc., Segrate (MI), Italy) was added to the immune complex and chemiluminescence was detected by ChemiDoc MP system (Bio-Rad Laboratories Inc., Segrate (MI), Italy). Optical densities of the bands were measured using ImageJ software (http://rsb.info.nih.gov/ij/ accessed on 15 March 2021) and normalized against bands relative to β-actin (1:5000, Abcam, Cambridge, UK)."}, "CD11b": {"tested_on": "CD11b", "experiment": "Western blotting quantification of CD11b in PFC and HIPP", "type": "in vivo", "settings": "mice 7 days after icv Aβ 4 µM, sublingual AKBA 5 mg/kg 30 min earlier", "method": "as §1, §2, §5"}, "NF-kB p65": {"tested_on": "NF-kB p65", "experiment": "Western blotting quantification of NF-kB p65 in PFC and HIPP", "type": "in vivo", "settings": "mice 7 days after icv Aβ 4 µM, sublingual AKBA 5 mg/kg 30 min earlier", "method": "as §1, §2, §5"}},
  "data": [
    {"molecule": "CNCCC(Oc1ccc(C(F)(F)F)cc1)c1ccccc1", "note": "(stereo not drawn) [fluoxetine]", "values": [
      {"measurement": "Depressive-like behavior induced by Aβ", "setting": "[1]", "result": "reduced the depressive-like behavior"}
    ]},
    {"molecule": "CNC1(c2ccccc2Cl)CCCCC1=O", "note": "(stereo not drawn) [ketamine]", "values": [
      {"measurement": "Pro-depressive-like effect of Aβ in rats", "setting": "Aβ-treated rats", "result": "able to revert"}
    ]},
    {"molecule": "Aβ: soluble amyloid beta 1-42 peptide (Tocris), injected icv at 4 µM to evoke a depressive-like phenotype [reference compound]", "values": [
      {"measurement": "Latency to leak in the splash test", "setting": "Aβ-treated mice [2]", "result": "significant increase in latency to leak"},
      {"measurement": "Time spent performing self-care in the splash test", "setting": "Aβ-treated mice [2]", "result": "reduction in time spent performing self-care"},
      {"measurement": "Immobility time in the tail suspension test", "setting": "Aβ-treated mice [3]", "result": "significant increase in the immobility time"},
      {"measurement": "NA levels in the HIPP", "setting": "noradrenaline (NA)", "result": "significant increase in catecholamine levels"},
      {"measurement": "GLU levels in the HIPP", "setting": "glutamate (GLU); HIPP", "result": "significantly increased hippocampal GLU levels"},
      {"measurement": "GLU levels in the PFC", "setting": "glutamate (GLU); PFC", "result": "increased GLU levels compared to SHAM mice"},
      {"measurement": "KYN levels in the HIPP", "setting": "kynurenine (KYN); HIPP", "result": "increase in KYN levels induced by the peptide"},
      {"measurement": "KYN levels in the PFC", "setting": "kynurenine (KYN); PFC", "result": "significant increase in cortical KYN levels"},
      {"measurement": "5-HT levels in the HIPP", "setting": "5-HT; HIPP", "result": "no differences among experimental groups"},
      {"measurement": "5-HT levels in the PFC", "setting": "5-HT; PFC", "result": "significant decrease in PFC"},
      {"measurement": "GFAP levels in the HIPP (optical density normalized to actin)", "setting": "GFAP; HIPP", "result": "significant increase in hippocampal GFAP levels"},
      {"measurement": "GFAP levels in the PFC (optical density normalized to actin)", "setting": "GFAP; PFC", "result": "significant increase in GFAP levels"},
      {"measurement": "CD11b levels in the HIPP (optical density normalized to actin)", "setting": "CD11b; HIPP", "result": "significant enhanced hippocampal levels"},
      {"measurement": "CD11b content in the PFC (optical density normalized to actin)", "setting": "CD11b; PFC", "result": "no differences were found among experimental groups"},
      {"measurement": "NF-kB p65 content in the HIPP (optical density normalized to actin)", "setting": "NF-kB p65; HIPP", "result": "significantly increased the levels of this transcription factor"},
      {"measurement": "NF-kB p65 levels in the PFC (optical density normalized to actin)", "setting": "NF-kB p65; PFC", "result": "significantly increased cortical NF-kB levels"}
    ]}
  ]
}
